Test results taken from patent publication US20150366839A1, “Schisantherin A for the treatment of neurodegenerative diseases” (priority 2014, published 2015).
Where two headings read alike, the source gives them in different places.

Experiments:
zebrafish larvae = assay type: in vivo
Experimental: (§1) The wild type zebrafish was used for this study.
Zebrafish behaviour was analyzed using a digital video tracking system (Viewpoint ZebraLab system). The system consists of a digital video camera connected to a computer system running the analysis software ZebraLab Man Rev 3.6B.
Moreover, 6-OHDA treatment also markedly altered the swimming behavior of zebrafish. […] Values in FIG. 9 represent the mean±SEM of 12 fish larvae per group of 3-time independent experiments. ###P<0.005 versus control group; *p<0.05, **p<0.01 and *** p<0.005 versus 6-OHDA group. […] The total swimming distance in 10 min travelled by the zebrafish larvae was decreased after exposure to 6-OHDA.

DA neurons in zebrafish = assay: Anti-TH whole-mount immunostaining, 6-OHDA-induced DA neuron loss; assay type: in vivo; settings: 3 μM positive control, 250 μM 6-OHDA, 2 days
Experimental: as §1
Zebrafish at one dpf were exposed to 250 μM 6-OHDA in the presence or absence of 10 μM Schi A or 3 μM nomifensine (Nom, a DAT (dopamine transporter) inhibitor used as a positive control) for 2 days. Then zebrafish were collected for immunostaining to detect the DA neurons. Zebrafish were fixed in 4% paraformaldehyde in PBS for 30 min, rinsed, and stored at −20° C. in 100% MtOH. Whole-mount immunostaining was done by standard methods (Zhang, Cheang et al. 2011). Briefly, paraformaldehyde fixed samples were blocked (2% goat serum and 0.1% BSA in PBST,) for 1 h at room temperature. A mouse monoclonal anti-tyrosine hydroxylase antibody (1:200 diluted in blocking buffer) was used as the primary antibody and incubated overnight with the sample at 4° C. […] Semi-quantification TH^+ cells were assessed by an investigator blinded to drug treatment history of zebrafish using Image-Pro Plus 6.0 software (Media Cybernetics, Silver Spring, Md., USA). Results are expressed as percentage of area of TH^+ cells in untreated control group.
To further evaluate the neuroprotective effect of SchiA in vivo, the inventors examined the DA neurons in zebrafish by whole-mount immunofluorescent staining with an antibody against tyrosine hydroxylase (TH). […] Data is expressed as percentage of the control group. […]

SH-SY5Y cells [1] = assay: MTT neuroprotection against MPP+-induced cell damage; assay type: cell-based; settings: for protection against MPP+-induced cell damage (cell viability): various concentrations 12 h before MPP+
Experimental: (§2) Human neuroblastoma SH-SY5Y cells were purchased from the American Type Culture Collection (ATCC, Manassas, Va., USA) and cultured in a humidified 5% (v/v) CO2 atmosphere in 37° C. in Dulbecco's Modified Eagle Medium (DMEM) (Life technologies, NY, USA) supplemented with 10% FBS, 1% penicillin (100 U/mL) and streptomycin (100 μg/mL). All experiments were carried out 48 h after the cells were seeded.
In another study, SH-SY5Y cells were seeded in 96-well plates (1×10^4 cells/well) for 48 h. SH-SY5Y cells were pre-treated with different concentrations of the five lignans for 12 h and the cell viability was checked by MTT assay. SH-SY5Y cells were pre-treated with different concentrations of the five lignans for 12 h and then exposed to 2 mM MPP or vehicle for 36 h. Cells were incubated at 37° C. for 4 h in 0.5 mg/mL MTT solution (prepared in serum free DMEM medium). The medium was then discarded and 100 μL of DMSO was added to each well to dissolve the violet-formazan crystals. The absorbance at 570 nm with 655 nm as a reference wavelength was measured by a multi-label counter (Wallac VICTOR3TMV, Perkin Elmer, Netherlands). Cell viability was expressed as a percentage of the value of the cells without MPP treatment. The LC50 and EC50 were calculated by GraphPad Prism V5.0 (GraphPad Software, Inc., San Diego, Calif.).
(§3) To evaluate the cytotoxicity of five selected lignans of S. chinensis, SH-SY5Y cells were treated with various concentrations of the tested compounds for 12 h and the cell viability was measured using the MTT assay. […] To further study the neuroprotective activities of the five lignans in vitro, cells were treated with various concentrations of the tested compounds for 12 h before exposed to MPP^+. […] Values represent mean±S.D. ###P<0.005 versus control group; *p<0.05, **p<0.01 and *** p<0.005 versus MPP group. […] The therapeutic index of SchiA and SC were 14.9 and 8.8, respectively.
The inventors also investigated the contribution of the PI3K/Akt pathway in the neuroprotective effects of SchiA. The inventors measured phosphorylation-Akt (p-Akt) levels after pre-treated with 60 μM SchiA for 12 h and then exposed to 2 mM MPP for another 36 h. […] And MPP^+-induced down-regulation of Akt expressions was inhibited by SchiA treatment. […] To further validate whether the activation of PI3K/Akt signaling pathway, the inventors determined the blocking effect of PI3K/Akt inhibitor such as AKT inhibitor IV on the in vitro neuroprotective effect of SchiA. SH-SY5Y cells were pre-incubated with Akt inhibitor IV (2 μM) for 1 h and then treated with SchiA for 12 h. Drug-treated cells were further treated with 2 mM MPP for another 36 h, MTT assay was used to determinate cell viability.

SH-SY5Y cells [2] = assay: MTT neuroprotection against 6-OHDA-induced cytotoxicity; assay type: cell-based, Human; settings: for protection against 6-OHDA-induced damage (cell viability): 3, 6, 12, 25, 50 and 100 μM for 12 h before 400 μM 6-OHDA 4 h
Experimental: as §2
(§4) Cell viability was determined by 3-(4,5-dimethyl-2-thiazolyl) 2,5-diphenyl-2H-tetrazolium bromide (MTT) assay (Sigma-Aldrich, USA). SH-SY5Y cells were seeded in 96-well plates (1×10^4 cells/well) for 48 h. SH-SY5Y cells were pre-treated with different concentrations of the five lignans (i.e. Schizandrin A, Schizandrin B, SC, Schizandrol A and SchiA) for 12 h and the cell viability was checked by MTT assay. Otherwise, SH-SY5Y cells were pre-treated with different concentrations of the five lignans for 12 h and then exposed to 400 μM 6-OHDA for 4 h. Cells were incubated at 37° C. for 4 h in 0.5 mg/mL MTT solution (prepared in serum free DMEM medium). The medium was then removed, and 100 μL of DMSO was added to each well to dissolve the violet-formazan crystals. The absorbance at 570 nm with 655 nm as a reference wavelength was measured by a multi-label counter (Wallac VICTOR3TMV, Perkin Elmer, Netherlands). Cell viability was expressed as a percentage of the value of the cells without 6-OHDA treatment. The LC50 and EC50 were calculated by GraphPad Prism V5.0 (GraphPad Software, Inc., San Diego, Calif.).
To further study the neuroprotective activities of the five lignans against 6-OHDA-induced cytotoxicity, cells were treated with various concentrations (3, 6, 12, 25, 50 and 100 μM) of the tested compounds for 12 h before exposed to 400 μM 6-OHDA for 4 h.

SH-SY5Y cells [3] = assay: MTT cytotoxicity of the five lignans; assay type: cell-based
Experimental: as §2, §4
To evaluate the cytotoxicity of five selected lignans of S. chinensis, SH-SY5Y cells were treated with various concentrations of the tested compounds for 12 h and the cell viability was measured using the MTT assay.
as §3

[4] = tested on: TH-positive neurons in the SNpc; assay type: in vivo, C57BL/6 mice; settings: 10 mg/kg/day i.g. positive control, then MPTP
Experimental: Male C57BL/6 mice (20±2 g body weight, 6-8 weeks of age) were purchased from the Laboratory Animal Center of Guangdong Province and were fed six animals per cage, under a 12 h light/dark cycle with ad libitum access to food and water. Mice were handled daily and allowed 3 days to acclimate before each treatment. Six groups of mice (n=7/group, total 42 mice) were assigned for the neuroprotective study in vivo. SchiA at different concentrations (30, 100 or 300 mg/kg/day), positive control drug (Selegiline, 10 mg/kg/day) or vehicle (Tween-80/ml propylene glycol/alcohol/5% PVA, 1:1:1:17, v/v/v/v) were administered by intragastric gavage (i.g.) daily for 14 days. Then mice were injected by intraperitoneal (i.p.) with 30 mg/kg MPTP hydrochloride (Sigma-Aldrich) or physiological saline daily on days 15-19 (total 5 days). In order to allow for the full conversion of MPTP to its active metabolite MPP^+, a further 3 days of resting period followed (Levites, Weinreb et al. 2001). All animal experiments were conducted according to the ethical guidelines for animal experiment of Jinan University. The experimental protocols were approved by the Ethics Committee for Animal Experiments of Jinan University (permit number 20110810).
Three days after MPTP treatment, animals were anesthetized by i.p. administration of […] chloral hydrate (10% (w/v) dissolved in distilled water) and perfused intracardially with 100 mL PBS (0.1 mmol/L, pH 7.4) followed by 150 mL 4% paraformaldehyde (PFA) in PBS. After intracardial perfusion, brains were collected and post-fixed in 4% PFA for another 24 h at 4° C., embedded in paraffin, and cut into 6 μm coronal sections encompassing the entire SNpc. As the decrease of TH-positive neurons in response to MPTP treatment is the most prominent at medial levels of the SNpc (Hayley, Crocker et al. 2004), the inventors selected the sections from the area encompassed between −3.08 and −3.20 from bregma to perform immunohistochemisty. Immunohistochemistry of brain tissues was performed as previously described (He, Yamauchi et al. 2008; Yokoyama, Takagi et al. 2008) with minor modifications. Sections were deparaffinized in xylene and rehydrated in a graded ethanol series. […] Non-specific protein binding was blocked with 10% bovine serum in PBS (0.01 M, pH 7.4). Between each treatment, the slides were washed at least three times with deionized water for 5 minutes. […] The results were analyzed by counting the numbers of TH-positive cells at ×10 magnifications on a stereomicroscope (BX51, Olympus Corp. Japan). TH-positive cells in 6 position-matched sections of each mouse were counted manually by operator who was blinded to the drug treatment. […]

Row | Compound | protection against MPP+-induced cell damage (cell viability) (SH-SY5Y cells [1]) | protection against 6-OHDA-induced damage (cell viability) (SH-SY5Y cells [2]) | CC50 (SH-SY5Y cells [3]) | other results
1 | N[C@@H](Cc1ccc(O)c(O)c1)C(=O)O [L-dopa] |  |  |  | deficit of locomotor activity of 6-OHDA-treated zebrafish (zebrafish larvae; 150 μM positive control with 6-OHDA): rescued the deficit of locomotor activity of 6-OHDA-treated zebrafish to normal
2 | CN1Cc2c(N)cccc2C(c2ccccc2)C1 (stereo not shown) [Nomifensine, nomifensine, reference compound] |  |  |  | 6-OHDA-induced dopaminergic neuron loss (area of TH+ cells) (DA neurons in zebrafish): considerable protection; deficit of locomotor activity of 6-OHDA-treated zebrafish (zebrafish larvae; 3 μM positive control with 6-OHDA): rescued the deficit of locomotor activity of 6-OHDA-treated zebrafish to normal
3 | COc1c2c(cc3c1-c1c(cc4c(c1OC)OCO4)C[C@H](C)[C@H](C)C3)OCO2 [SC, Schizandrin C] | protect against MPP^+-induced cell damage in a dose-dependent manner | protected SH-SY5Y cells against 6-OHDA-induced damage in a dose-dependent manner |  | EC50 (SH-SY5Y cells [1]; pre-treated 12 h, then 2 mM MPP+ 36 h): 15.3 µM; EC50 (SH-SY5Y cells [2]; pre-treated 12 h, then 400 μM 6-OHDA 4 h): 15.3 µM; CC50 (SH-SY5Y cells [3]; treated 12 h, MTT, read-out: LC50 (the source's name)): 135 µM
4 | COc1cc2c(c(OC)c1OC)-c1c(cc(OC)c(OC)c1OC)C[C@H](C)[C@H](C)C2 [Schizandrin A, reference compound] | did not show protective effects | did not show protective effects | 233 µM | 
5 | COc1cc2c(c(OC)c1OC)-c1c(cc3c(c1OC)OCO3)CC(C)C(C)C2 (stereo not shown) [Schizandrin B, reference compound] | did not show protective effects | did not show protective effects | 189 µM | 
6 | COc1cc2c(c(OC)c1OC)-c1c(cc(OC)c(OC)c1OC)C[C@](C)(O)[C@@H](C)C2 [Schizandrol A, reference compound] | did not show protective effects | did not show protective effects | 155 µM | 
7 | C#CCN(C)[C@H](C)Cc1ccccc1 [selegiline, reference compound] |  |  |  | TH-positive neurons in SNpc [4]: 80±15 cells/section
8 | AKT inhibitor IV [reference compound] |  |  |  | effect on the protective effect of SchiA on MPP+-induced cytotoxicity (SH-SY5Y cells [1]; 2 μM 1 h pre-incubation, then SchiA 12 h, 2 mM MPP+ 36 h, MTT): clearly abrogate the protective effect of SchiA
